≈ marks a conversion by molar mass, not a printed value.
Experiments:
Acinetobacter baumannii = test: microbe, parasite or virus in culture; conditions: ATCC 19606, 18 h, ASSAY_TEST Inhibition of Bacterial Growth, detection method Absorption (OD600), MEDIA CAMHB, plate type 384well, NBS, CORNING #3640
Description: Antibacterial activity against Acinetobacter baumannii ATCC 19606 (CO-ADD:GN_034); MIC in CAMBH media using NBS plates, by OD600

Pseudomonas aeruginosa = test: microbe, parasite or virus in culture; conditions: ATCC 27853, 18 h, ASSAY_TEST Inhibition of Bacterial Growth, detection method Absorption (OD600), MEDIA CAMHB, plate type 384well, NBS, CORNING #3640
Description: Antibacterial activity against Pseudomonas aeruginosa ATCC 27853 (CO-ADD:GN_042); MIC in CAMBH media using NBS plates, by OD(600)

Klebsiella pneumoniae = test: microbe, parasite or virus in culture; conditions: ATCC 700603, 18 h, ASSAY_TEST Inhibition of Bacterial Growth, detection method Absorption (OD600), MEDIA CAMHB, plate type 384well, NBS, CORNING #3640
Description: Antibacterial activity against Klebsiella pneumoniae MDR ATCC 70063 (CO-ADD:GN_003); MIC in CAMBH media using NBS plates, by OD(600)

Staphylococcus aureus = test: microbe, parasite or virus in culture; conditions: ATCC 43300, 18 h, ASSAY_TEST Inhibition of Bacterial Growth, detection method Absorption (OD600), MEDIA CAMHB, plate type 384well, NBS, CORNING #3640
Description: Antibacterial activity against Staphylococcus aureus MRSA ATCC 43300 (CO-ADD:GP_020); MIC in CAMBH media, using NBS plates, by OD(600)

Escherichia coli = test: microbe, parasite or virus in culture; conditions: ATCC 25922, 18 h, ASSAY_TEST Inhibition of Bacterial Growth, detection method Absorption (OD600), MEDIA CAMHB, plate type 384well, NBS, CORNING #3640
Description: Antibacterial activity against Escherichia coli ATCC 25922 (CO-ADD:GN_001); MIC in CAMBH media using NBS plates, by OD(600)

Candida albicans = test: microbe, parasite or virus in culture; conditions: ATCC 90028, ASSAY_TEST Inhibition of Fungal Growth, detection method Absorption (OD530), plate type 384well, NBS, CORNING #3640
Description: Antifungal activity against Candida albicans ATCC 90028 (CO-ADD:FG_001); MIC in YNB media using NBS plates, by OD630

HEK293 = test: cells; type: functional; conditions: Homo sapiens, ATCC CRL1573, HEK293; ASSAY_TEST Inhibition of Cell Viability; detection method Resazurin; Fluorescence (ex560/em590); MEDIA DMEM with 10% FBS; plate type 384well; TC; CORNING #3712; time 18 hr

Description for Cryptococcus neoformans: Antifungal activity against Cryptococcus neoformans H99 ATCC 208821 (CO-ADD:FG_002); MIC in YNB media using NBS plates, by Resazurin OD(600-570)

Structure (SMILES) | MIC (Acinetobacter baumannii) [µg/mL] | MIC (Pseudomonas aeruginosa) [µg/mL] | MIC (Klebsiella pneumoniae) [µg/mL] | MIC (Staphylococcus aureus) [µg/mL] | MIC (Escherichia coli) [µg/mL] | MIC (Cryptococcus neoformans) [µg/mL] | MIC (Candida albicans) [µg/mL] | CC50 (HEK293) [µg/mL]
C=C[C@]1(C)C[C@@H](OC(=O)CO)[C@]2(C)[C@H](C)CC[C@]3(CCC(=O)[C@H]32)[C@@H](C)[C@@H]1O [PLEUROMULIN] | > 32 | > 32 | > 32 | 2 (≈ 5.28 µM) | > 32 | > 32 | > 32 | > 32
Cc1cc(C)c(Nc2ccccc2-c2ccccc2[N+](=O)[O-])c(C)c1 | > 32 | > 32 | > 32 | > 32 | > 32 | > 32 | 16 (≈ 48.1 µM) | 13.1 (≈ 39.4 µM)
O=[N+]([O-])c1ccccc1-c1ccccc1N(Cc1ccccc1)c1ccccc1 | > 32 | > 32 | > 32 | > 32 | > 32 | > 32 | 32 (≈ 84.1 µM) | 8.14 (≈ 21.4 µM)

Further lines, with some results ahead:

MIC (Acinetobacter baumannii) [µg/mL] | MIC (Pseudomonas aeruginosa) [µg/mL] | MIC (Klebsiella pneumoniae) [µg/mL] | MIC (Staphylococcus aureus) [µg/mL] | MIC (Escherichia coli) [µg/mL] | MIC (Cryptococcus neoformans) [µg/mL] | MIC (Candida albicans) [µg/mL] | Structure (SMILES) | CC50 (HEK293) [µg/mL]
> 32 | > 32 | > 32 | 32 (≈ 84.8 µM) | > 32 | > 32 | 4 (≈ 10.6 µM) | Cc1cc(C)c(Nc2ccccc2-c2ccc([N+](=O)[O-])cc2[N+](=O)[O-])c(C)c1 | 15.7 (≈ 41.6 µM)
> 32 | > 32 | > 32 | 16 (≈ 55.1 µM) | > 32 | 16 (≈ 55.1 µM) | 8 (≈ 27.6 µM) | O=[N+]([O-])c1ccccc1-c1ccccc1Nc1ccccc1 | 2.15 (≈ 7.41 µM)
> 32 | > 32 | > 32 | 4 (≈ 13.1 µM) | > 32 | 32 (≈ 105 µM) | 8 (≈ 26.3 µM) | Cc1ccccc1Nc1ccccc1-c1ccccc1[N+](=O)[O-] | 1.95 (≈ 6.41 µM)

— ChEMBL document CHEMBL4513137, “CO-ADD screening of University of Manchester (UK) compounds”
